Laboratory results as given in US7700592B2, “α2C adrenoreceptor agonists” (Schering Corporation, priority 2005, dated 2010).

The molecules below were run against T1, α2C receptor (Homo sapiens, UniProt P18825) (assay: GTPγS assay, efficacy agonist activity (Emax) for α2C). Settings: active agonist = efficacy at α2C ≧30% Emax; functionally selective = additionally efficacy at α2A ≦30% Emax (GTPγS assay).
T1 sequence (P18825 1-462): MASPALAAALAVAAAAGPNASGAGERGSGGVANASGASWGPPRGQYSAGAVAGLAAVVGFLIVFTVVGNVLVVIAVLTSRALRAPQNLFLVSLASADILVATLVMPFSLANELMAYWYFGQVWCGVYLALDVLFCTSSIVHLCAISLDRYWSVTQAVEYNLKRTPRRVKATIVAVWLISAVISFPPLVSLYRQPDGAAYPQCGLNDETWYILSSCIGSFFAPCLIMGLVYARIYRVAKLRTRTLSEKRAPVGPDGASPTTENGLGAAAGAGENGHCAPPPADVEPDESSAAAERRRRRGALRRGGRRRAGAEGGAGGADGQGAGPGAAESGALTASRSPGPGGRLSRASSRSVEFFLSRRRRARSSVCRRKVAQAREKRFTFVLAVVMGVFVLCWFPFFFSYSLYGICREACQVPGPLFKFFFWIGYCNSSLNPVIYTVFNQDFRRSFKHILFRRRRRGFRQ
Format: biochemical
Source text: For the purposes of this present invention, a compound is defined to be an active agonist of the α2C receptor subtype if the compound's efficacy at the α2C receptor is ≧30% Emax (GTPγS assay). A compound is a functionally selective agonist of the α2C receptor subtype over the α2A receptor subtype if the compound's efficacy at the α2C receptor is ≧30% Emax (GTPγS assay) and its efficacy at the α2A receptor is ≦30% Emax (GTPγS assay).
Efficacy agonist activity values (Emax, GTPγS assay) for α2C were determined by following the general procedure detailed by Umland et al (“Receptor reserve analysis of the human α2c-adrenoceptor using [^35S]GTPγS and cAMP functional assays” European Journal of Pharmacology 2001, 411, 211-221). For the purposes of the present invention, a compound is defined to be an active agonist of the α2C receptor subtype if the compound's efficacy at the α2C receptor is ≧30% Emax (GTPγS assay). A compound is a functionally selective agonist of the α2C receptor subtype over the α2A receptor subtype if the compound's efficacy at the α2C receptor is […] Emax (GTPγS assay) and its efficacy at the α2A receptor is ≦30% Emax (GTPγS assay).
For `CNC(=O)N(C)c1ccc2c(c1)N(Cc1c[nH]cn1)CCCO2` [Compound 223], the “Efficacy agonist activity (Emax, GTPγS assay) for α2C: evaluated as active or functionally selective agonist” value was “active or functionally selective agonists of the α2C receptor subtype”. In the case of `COCCOC(=O)N(C)c1ccc2c(n1)N(Cc1c[nH]cn1)CCO2` [Compound 231], the “Efficacy agonist activity (Emax, GTPγS assay) for α2C: evaluated as active or functionally selective agonist” value is reported as “active or functionally selective agonists of the α2C receptor subtype”. With `CNC(=O)N(C)c1cc(Cl)c2c(c1)N(Cc1c[nH]cn1)CCO2` [Compound 232] the “Efficacy agonist activity (Emax, GTPγS assay) for α2C: evaluated as active or functionally selective agonist” value was “active or functionally selective agonists of the α2C receptor subtype”. For `CONC(=O)N(C)c1cc(Cl)c2c(c1)N(Cc1c[nH]cn1)CCO2` [Compound 235], the “Efficacy agonist activity (Emax, GTPγS assay) for α2C: evaluated as active or functionally selective agonist” value was “active or functionally selective agonists of the α2C receptor subtype”. `CCN(C(=O)NC)c1cc(Cl)c2c(c1)N(Cc1c[nH]cn1)CCO2` [Compound 236] was tested, and the “Efficacy agonist activity (Emax, GTPγS assay) for α2C: evaluated as active or functionally selective agonist” value was “active or functionally selective agonists of the α2C receptor subtype”. With `CCCN(C(=O)NC)c1ccc2c(c1)N(Cc1c[nH]cn1)CCO2` [Compound 238] the “Efficacy agonist activity (Emax, GTPγS assay) for α2C: evaluated as active or functionally selective agonist” value was “active or functionally selective agonists of the α2C receptor subtype”. `CNC(=O)N(C)c1cc(C)c2c(c1)N(Cc1c[nH]cn1)CCO2` [Compound 239] was tested, and the “Efficacy agonist activity (Emax, GTPγS assay) for α2C: evaluated as active or functionally selective agonist” value was “active or functionally selective agonists of the α2C receptor subtype”. With `COC(=O)N(C)c1cc(C)c2c(c1)N(Cc1c[nH]cn1)CCO2` [Compound 240] the “Efficacy agonist activity (Emax, GTPγS assay) for α2C: evaluated as active or functionally selective agonist” value was “active or functionally selective agonists of the α2C receptor subtype”. For `COCC(=O)N(C)c1ccc2c(c1)N(Cc1c[nH]cn1)CCO2` [Compound 242], the “Efficacy agonist activity (Emax, GTPγS assay) for α2C: evaluated as active or functionally selective agonist” value was “active or functionally selective agonists of the α2C receptor subtype”. For `CONC(=O)N(C)c1ccc2c(c1)N(Cc1c[nH]cn1)CCO2` [Compound 243], the “Efficacy agonist activity (Emax, GTPγS assay) for α2C: evaluated as active or functionally selective agonist” value was “active or functionally selective agonists of the α2C receptor subtype”. With `CCN(C(=O)NOC)c1ccc2c(c1)N(Cc1c[nH]cn1)CCO2` [Compound 244] the “Efficacy agonist activity (Emax, GTPγS assay) for α2C: evaluated as active or functionally selective agonist” value was “active or functionally selective agonists of the α2C receptor subtype”. With `CCNC(=O)N(CC)c1ccc2c(c1)N(Cc1c[nH]cn1)CCO2` [Compound 245] the “Efficacy agonist activity (Emax, GTPγS assay) for α2C: evaluated as active or functionally selective agonist” value was “active or functionally selective agonists of the α2C receptor subtype”. `COCCCOC(=O)Nc1ccc2c(c1)N(Cc1c[nH]cn1)CCO2` [Compound 246] was tested, and the “Efficacy agonist activity (Emax, GTPγS assay) for α2C: evaluated as active or functionally selective agonist” value was “active or functionally selective agonists of the α2C receptor subtype”. In the case of `N#CCCOC(=O)Nc1ccc2c(c1)N(Cc1c[nH]cn1)CCO2` [Compound 247], the “Efficacy agonist activity (Emax, GTPγS assay) for α2C: evaluated as active or functionally selective agonist” value is reported as “active or functionally selective agonists of the α2C receptor subtype”. In the case of `N#Cc1ccc(COC(=O)Nc2ccc3c(c2)N(Cc2c[nH]cn2)CCO3)cc1` [Compound 248], the “Efficacy agonist activity (Emax, GTPγS assay) for α2C: evaluated as active or functionally selective agonist” value is reported as “active or functionally selective agonists of the α2C receptor subtype”. `CSCCOC(=O)Nc1ccc2c(c1)N(Cc1c[nH]cn1)CCO2` [Compound 249] was tested, and the “Efficacy agonist activity (Emax, GTPγS assay) for α2C: evaluated as active or functionally selective agonist” value was “active or functionally selective agonists of the α2C receptor subtype”. In the case of `CS(=O)(=O)CCOC(=O)Nc1ccc2c(c1)N(Cc1c[nH]cn1)CCO2` [Compound 250], the “Efficacy agonist activity (Emax, GTPγS assay) for α2C: evaluated as active or functionally selective agonist” value is reported as “active or functionally selective agonists of the α2C receptor subtype”. For `CCN(C(=O)C#CC1CC1)c1ccc2c(c1)N(Cc1c[nH]cn1)CCO2` [Compound 251], the “Efficacy agonist activity (Emax, GTPγS assay) for α2C: evaluated as active or functionally selective agonist” value was “active or functionally selective agonists of the α2C receptor subtype”. With `N#Cc1cc(Cl)c2c(c1)N(Cc1c[nH]cn1)CCO2` [Compound 253] the “Efficacy agonist activity (Emax, GTPγS assay) for α2C: evaluated as active or functionally selective agonist” value was “active or functionally selective agonists of the α2C receptor subtype”. With `CCCCOC(=O)N(C)c1ccc2c(c1)N(Cc1c[nH]cn1)CCO2` [Compound 256] the “Efficacy agonist activity (Emax, GTPγS assay) for α2C: evaluated as active or functionally selective agonist” value was “active or functionally selective agonists of the α2C receptor subtype”. For `CCCOC(=O)N(C)c1ccc2c(c1)N(Cc1c[nH]cn1)CCO2` [Compound 257], the “Efficacy agonist activity (Emax, GTPγS assay) for α2C: evaluated as active or functionally selective agonist” value was “active or functionally selective agonists of the α2C receptor subtype”. `CN(C(=O)CCCOc1ccccc1)c1ccc2c(c1)N(Cc1c[nH]cn1)CCO2` [Compound 259] was tested, and the “Efficacy agonist activity (Emax, GTPγS assay) for α2C: evaluated as active or functionally selective agonist” value was “active or functionally selective agonists of the α2C receptor subtype”. `COCCOCC(=O)N(C)c1ccc2c(c1)N(Cc1c[nH]cn1)CCO2` [Compound 260] was tested, and the “Efficacy agonist activity (Emax, GTPγS assay) for α2C: evaluated as active or functionally selective agonist” value was “active or functionally selective agonists of the α2C receptor subtype”. `CC#CCOC(=O)N(C)c1ccc2c(c1)N(Cc1c[nH]cn1)CCO2` [Compound 262] was tested, and the “Efficacy agonist activity (Emax, GTPγS assay) for α2C: evaluated as active or functionally selective agonist” value was “active or functionally selective agonists of the α2C receptor subtype”. With `CCCCCCOC(=O)N(C)c1ccc2c(c1)N(Cc1c[nH]cn1)CCO2` [Compound 263] the “Efficacy agonist activity (Emax, GTPγS assay) for α2C: evaluated as active or functionally selective agonist” value was “active or functionally selective agonists of the α2C receptor subtype”. For `CCCOC(=O)N(CC)c1ccc2c(c1)N(Cc1c[nH]cn1)CCO2` [Compound 264], the “Efficacy agonist activity (Emax, GTPγS assay) for α2C: evaluated as active or functionally selective agonist” value was “active or functionally selective agonists of the α2C receptor subtype”. In the case of `CCCCOC(=O)N(CC)c1ccc2c(c1)N(Cc1c[nH]cn1)CCO2` [Compound 265], the “Efficacy agonist activity (Emax, GTPγS assay) for α2C: evaluated as active or functionally selective agonist” value is reported as “active or functionally selective agonists of the α2C receptor subtype”. `C=CCS(=O)(=O)Nc1ccc2c(c1)N(Cc1c[nH]cn1)CCO2` [Compound 266] was tested, and the “Efficacy agonist activity (Emax, GTPγS assay) for α2C: evaluated as active or functionally selective agonist” value was “active or functionally selective agonists of the α2C receptor subtype”. With `CCCOC(=O)Nc1ccc2c(c1)N(Cc1c[nH]cn1)CCO2` [Compound 271] the “Efficacy agonist activity (Emax, GTPγS assay) for α2C: evaluated as active or functionally selective agonist” value was “active or functionally selective agonists of the α2C receptor subtype”. With `CCCCOC(=O)Nc1ccc2c(c1)N(Cc1c[nH]cn1)CCO2` [Compound 272] the “Efficacy agonist activity (Emax, GTPγS assay) for α2C: evaluated as active or functionally selective agonist” value was “active or functionally selective agonists of the α2C receptor subtype”. For `CCCCCCNC(=O)N(C)c1ccc2c(c1)N(Cc1c[nH]cn1)CCO2` [Compound 273], the “Efficacy agonist activity (Emax, GTPγS assay) for α2C: evaluated as active or functionally selective agonist” value was “active or functionally selective agonists of the α2C receptor subtype”. `CCN(C(=O)NCc1ccco1)c1ccc2c(c1)N(Cc1c[nH]cn1)CCO2` [Compound 274] was tested, and the “Efficacy agonist activity (Emax, GTPγS assay) for α2C: evaluated as active or functionally selective agonist” value was “active or functionally selective agonists of the α2C receptor subtype”. With `CCN(C(=O)OCc1cccnc1)c1ccc2c(c1)N(Cc1c[nH]cn1)CCO2` [Compound 275] the “Efficacy agonist activity (Emax, GTPγS assay) for α2C: evaluated as active or functionally selective agonist” value was “active or functionally selective agonists of the α2C receptor subtype”. `CCN(C(=O)OCc1ccncc1)c1ccc2c(c1)N(Cc1c[nH]cn1)CCO2` [Compound 276] was tested, and the “Efficacy agonist activity (Emax, GTPγS assay) for α2C: evaluated as active or functionally selective agonist” value was “active or functionally selective agonists of the α2C receptor subtype”. In the case of `CCN(C(=O)OCc1cc(C)on1)c1ccc2c(c1)N(Cc1c[nH]cn1)CCO2` [Compound 278], the “Efficacy agonist activity (Emax, GTPγS assay) for α2C: evaluated as active or functionally selective agonist” value is reported as “active or functionally selective agonists of the α2C receptor subtype”. In the case of `CCN(C(=O)OCc1ccncc1N)c1ccc2c(c1)N(Cc1c[nH]cn1)CCO2` [Compound 279], the “Efficacy agonist activity (Emax, GTPγS assay) for α2C: evaluated as active or functionally selective agonist” value is reported as “active or functionally selective agonists of the α2C receptor subtype”. With `CCN(C(=O)NCc1ccccc1)c1ccc2c(c1)N(Cc1c[nH]cn1)CCO2` [Compound 280] the “Efficacy agonist activity (Emax, GTPγS assay) for α2C: evaluated as active or functionally selective agonist” value was “active or functionally selective agonists of the α2C receptor subtype”. In the case of `CCN(C(=O)OCc1cnc(N)nc1)c1ccc2c(c1)N(Cc1c[nH]cn1)CCO2` [Compound 281], the “Efficacy agonist activity (Emax, GTPγS assay) for α2C: evaluated as active or functionally selective agonist” value is reported as “active or functionally selective agonists of the α2C receptor subtype”.
